These results are taken from patent publication US12384775B2, “Pyrimid-2-yl-pyrazole compounds as IRAK inhibitors” (Rigel Pharmaceuticals, Inc., priority 2022, dated 2025).

Molecules are shown by their SMILES.

One data set has as its system IL23p19 in THP-1 Cells. Description: LPS induced IL23p19 in THP-1 cells (IFNγ primed), ELISA. The class given is cell-based. Particulars: Homo sapiens; for IC50: THP-1, LPS, read-out: Cell Assays IC50, IL-23 (LPS, THP-1). As for the experimental part: On day 1, 50K/well THP-1 cells were seeded and primed with IFNγ (50 ng/mL) in 384-well plates for about 18 hours in RPMI media with 10% FBS. On day 2, the compound was serially diluted in DMSO from 5 mM in 3-fold dilutions, and then diluted 1:125 in RPMI media with 10% FBS. 50 μL/well 2× compound was added to 50 μL/well THP-1 cells (with IFNγ primed) in duplicate in 384 well tissue culture plates. The cells were pre-incubated with compound for 1 hour at 37° C., 5% CO2 before addition of 10 μL/well 11×LPS to give a final concentration of 1 μg/mL LPS. Day 3, after stimulation for 18 hours at 37° C., 5% CO2, the assay plate was centrifuged and 70 μL/well supernatant was harvested. IL-23p19 protein in 70 μL/well of supernatant was measured by sandwich ELISA, and 25 μl/well Cell Titer Glo reagent was added to the remaining cells to measure compound toxicity.
Maxisorp immuno ELISA plates were pre-coated with 25 μL/well of anti-IL-23p19 capture antibody (2.5 ug/mL) in PBS overnight at room temperature. After washing with 1×PBST, the plates were blocked using 100 μL/well of 1% BSA in PBS for 2 hours at room temperature. The plates were washed three times with 1×PBST and 70 μL/well supernatant were added. The plates were incubated at room temperature for 2 hours with shaking and washed three times with 1×PBST. 25 μL/well of biotin labeled anti-IL-12 (p40/p70) detection antibody (100 ng/mL) in PBS with 1% BSA was added and the plates were incubated at room temperature for 2 hours with shaking. After washing three times with 1× PBST, 25 μL/well of streptavidin-HRP (1:200) in PBS with 1% BSA was added and the plates were incubated at room temperature for 20 minutes with shaking. The plates were washed three times with 1× PBST and 25 μL/well of Super Signal ELISA Pico Chemiluminescent Substrate were added. The plates were read with a luminometer, and the chemiluminescence values were entered into Athena (Rigel) for curve fitting, EC50 calculation, and database storage.
THP-1 cells (100K in 100 μL/well) were primed with 25 ng/mL IFN-γ for 18 hours at 37° C., 5% CO2. Compound was serially diluted in DMSO from 2.5 mM in 4-fold dilutions, and then diluted 1:125 in RPMI 1640 complete media with 10% FBS. 100 μL/well 2× compound was mixed with the 100 μL/well IFN-7 primed THP-1 in 96 well flat-bottom white tissue culture plates. The cells were pre-incubated with compound for 1 hour at 37° C., 5% CO2 and before addition of 10 μL/well 21×LPS to give a final concentration of […] for LPS. The cells were stimulated with LPS for 18 hours at 37° C., 5% CO2. After centrifugation, 100 μL/well supernatant was extracted by using a multichannel pipette. IL-23p19 or TNF-α protein in the supernatant were measured by sandwich ELISA. The remaining IFN-7 primed THP-1 cell pellets were used to perform cell viability assays to determine compound cell toxicity. The plates were read with a luminometer, and the chemiluminescence values were entered into Athena (Rigel) for curve fitting, EC50 calculation, and database storage.
Maxisorp immuno ELISA plates were pre-coated with 100 μL/well of anti-IL-23p19 capture antibody (2.4 μg/mL) in PBS overnight at room temperature. After washing with 1×PBST, the plates were blocked using 300 μL/well of 1% BSA in PBS for 2 hours at room temperature. The plates were washed three times with 1×PBST and 100 μL/well supernatant was added. The plates were incubated at room temperature for 2 hours with shaking. The plates were washed three times with 1×PBST and 100 μL/well of biotin anti-human IL-12 (p40/70) detection antibody (10 ng/mL) in PBS with 0.1% BSA were added. The plates were incubated at room temperature for 2 hours with shaking. The plates were washed three times with 1×PBST and 100 μL/well streptavidin-HRP (1:200) in PBS with 0.1% BSA was added. The plates were incubated at room temperature for 20 minutes with shaking. […]

The nature of data set [1]: Plasma protein binding, equilibrium dialysis (RED), dog. Particulars: drug 5 μM; for fraction unbound at 5 μM: read-out: % bound (converted). The class given is in vitro ADME. How it is done: (§1) Brain and plasma drug binding were performed by equilibrium dialysis using the Rapid Equilibrium Dialysis (RED) device. Briefly, 300 μL of plasma or brain homogenate (1 brain/3 buffer) containing drug (5 μM) was equilibrated (4-18 h) against 500 μL of buffered saline. After incubation, the concentration of drug in plasma/brain homogenate and buffer was determined by LC-MS/MS.
(§2) Recovery is calculated by determining the total amount of drug in 50 μL of plasma and 50 μL buffer after the incubation and comparing that value to the amount of drug in 50 μL of a plasma sample that was not incubated. For the protein binding assay, drug was added to the plasma and this plasma was added to one side of the dialysis device while buffer was added to the other. After filing the plasma chamber of the equilibrium device, a 50 μL aliquot of plasma was mixed with 50 μL of buffer and then quenched with stop reagent. Drug recovery=(Drug buffer+Drug plasma)/(drug in initial plasma)

Data set [2] is described as follows: Plasma protein binding, equilibrium dialysis (RED), rat. The class given is in vitro ADME. Particulars: for recovery at 5 μM / fraction unbound at 5 μM: Rat plasma, drug 5 μM; for fraction unbound at 5 μM: read-out: % bound (converted); for Free Fraction in Whole Blood Assay, Rat: plasma free fraction. As for the experimental part:
as §1, §2
In general terms: Equilibrium dialysis compares concentrations on both sides of a semipermeable membrane.

Data set [3] can be described thus: Plasma protein binding, equilibrium dialysis (RED), monkey. The class given is in vitro ADME. The note with it: drug 5 μM; for fraction unbound at 5 μM: read-out: % bound (converted); for recovery at 5 μM: value above 100% due to experimental error (footnote). As for the experimental part:
as §1, §2

Data set [4] is described as follows: Plasma protein binding, equilibrium dialysis (RED), mouse. The class given is in vitro ADME. Particulars: drug 5 μM; for recovery at 5 μM: low due to hydrolysis; for fraction unbound at 5 μM: read-out: % bound (converted). As for the experimental part: as §1, §2
Data set [5] deals with TLR7-Induced TNF-α in Human Peripheral Blood Mononuclear Cells (PBMC). In words: TLR7-induced TNF-α in human PBMC (resiquimod). The class given is cell-based. Particulars: resiquimod 0.1 μg/ml, read-out: Cell Assays IC50, TNFα (PBMC, resiquimod). As for the experimental part:
Human peripheral blood mononuclear cells (PBMC) were seeded at 100,000 cells per well in 100 μL of RPMI with 10% FCS and primed overnight with 8 ng/ml of IFN-β at 37° C., 5% CO2. Compound was serially diluted in DMSO from 2 mM in 3-fold dilutions, and then diluted 1:100 in RPMI 1640 complete media with 10% FBS (2× stock). The PBMCs were pre-incubated with test compound for 1 hour at 37° C., 5% CO2 by adding 100 μL of RPMI media containing 2× concentrated test compound per well (0.5% final DMSO concentration).
The PBMCs were stimulated with resiquimod (10 μL per well of 21× concentrated resiquimod solution in RPMI media to give a final concentration of 0.1 μg/ml) at 37° C., 5% CO2 for an additional 18 hours. 100 μL of supernatant per well was harvested to measure TNF-α. TNF-α was quantitated using DuoSet ELISA Kit per manufacturer's protocol.

For `CCO[C@H]1CC[C@H](n2cc(NC(=O)c3csc(-c4cn[nH]c4)n3)c(-c3ncccn3)n2)CC1` [Compound I-1, N-(1-((1r,4r)-4-ethoxycyclohexyl)-3-(pyrimidin-2-yl)-1H-pyrazol-4-yl)-2-(1H-pyrazol-4-yl)thiazole-4-carboxamide], the values for the IC50 (with IL23p19 in THP-1 Cells; in data set [5]) were 8 nM and 3 nM, respectively. For the same compound, in the data set on IL23p19 in THP-1 Cells (THP-1 cells IFNγ primed, LPS 1 μg/mL, 18 h, read-out: IL23-p19 ELISA, THP1-IFNy, LPS, 10 pt EC50), the EC50 – broadly, the concentration giving half of the maximal effect – came to 8 nM. The recovery at 5 μM was 70.7% in data set [1], 73.9% in data set [2], 104% in data set [3] and 23.6% in data set [4]. Moreover, the fraction unbound at 5 μM in data set [1] was 0.066; in data set [2], 0.037; in data set [3], 0.017; in data set [4], 0.085. In addition, the “Free Fraction in Whole Blood Assay, Rat” value in data set [2] was determined as 3.7%.

In the case of `CCO[C@H]1CC[C@H](n2cc(NC(=O)c3csc(-c4cn[nH]c4)n3)c(-c3nc(F)ccc3F)n2)CC1` [Comparison-1, reference compound], the IC50 (as a rule, the concentration needed to halve the response being measured) is 63 nM in the data set on IL23p19 in THP-1 Cells and 15 nM in data set [5]. The recovery at 5 μM in data set [1] amounted to 77.2%; in data set [2], 68.3%; in data set [3], 71.6%; in data set [4], 10%. Besides, the fraction unbound at 5 μM in data set [1] is 0.01; in data set [2] it was 0.007; in data set [3], 0.003; in data set [4], 0.022. The “Free Fraction in Whole Blood Assay, Rat” value in data set [2] was determined as 0.7%.
